Measured values as given in patent US10954287B2, “Ras binding peptides and methods of use” (Ra Pharmaceuticals, Inc., priority 2016, dated 2021).
*1 amine or outer side, *2 acyl side, *3 side chain or, on linkers, in order; H or OH if unused. Where a SMILES comes first, the peptide text is derived from it. Bridges are numbered along the chain shown (N, C = ends). [ ]: non-standard residue; d: D form. The star is where a group is joined. ξ: configuration not given here. 4‑(dimethylamino)benzoyl‑d4 = DMABZK2: N6-(4-(dimethylamino)benzoyl-2,3,5,6-d4)-L-lysine, [2H]c1c([2H])c(N(C)C)c([2H])c([2H])c1C(=O)*; DAPTZAC3 = (S)-3-(4-(3-acrylamidopropyl)-1H-1,2,3-triazol-1-yl)-2-aminopropanoic acid, C=CC(=O)NCCCc1cn(C[C@H](N[*:1])C(=O)[*:2])nn1; DAPTZAC2 = (S)-3-(4-(2-acrylamidoethyl)-1H-1,2,3-triazol-1-yl)-2-aminopropanoic acid, C=CC(=O)NCCc1cn(C[C@H](N[*:1])C(=O)[*:2])nn1; ADTZPA = (S)-2-amino-3-(1-dodecyl-1H-1,2,3-triazol-4-yl)propanoic acid; m‑xylylene = m-xylylene thioether bridge between Cys; Trp(7-aza) = N[C@@H](Cc1c[nH]c2ncccc12)C(=O)O; NMePhe(4-F) = CN[C@@H](Cc1ccc(F)cc1)C(=O)O; Alexa Fluor 594 = N-terminal label (ALF); mXylylene = c1cc(C[*:1])cc(C[*:2])c1; PEG4 = NCCOCCOCCOCCOCCC(=O)O; Phg = N[C@H](C(=O)O)c1ccccc1; Tle = CC(C)(C)[C@H](N)C(=O)O; ξPhg = NC(C(=O)O)c1ccccc1; NMeA = CN[C@@H](C)C(=O)O; Pra = C#CC[C@H](N)C(=O)O; Nva = CCC[C@H](N)C(=O)O; AEEA = NCCOCCOCC(=O)O; PEG1 = NCCOCCC(=O)O; Ahx = NCCCCCC(=O)O; Ava = NCCCCC(=O)O; Sar = CNCC(=O)O

system: GMPPNP-loaded H-Ras or GTP-loaded K-Ras; test: Fluorescence polarization competition assay with TAMRA-labeled probe R4007; format: binding, human; conditions: 120 nM Ras, 30 nM probe R4007, 60 minutes at room temperature; read-out: Probe displacement (nM IC50)
In short: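 120 nM GMPPNP-loaded H-Ras or GTP-loaded K-Ras was preincubated with 30 nM TAMRA-labeled R4007 probe for 20 min at room temperature in Tris pH 7.5 buffer with MgCl2, EDTA and Triton X-100. Serially diluted competitor was then added for 60 min. Polarization was read at 535/595 nm, with Ki from a one-site Ki fit and IC50 from probe displacement.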

| IC50 [nM] | Molecule |
| --- | --- |
| 36400 | CCC[C@H](NC(C)=O)C(=O)N[C@H]1CSCc2cccc(c2)CSC[C@@H](C(N)=O)NC(=O)CN(C)C(=O)[C@H](Cc2ccc(F)cc2)N(C)C(=O)[C@H](Cc2ccc(O)cc2)NC(=O)[C@H](Cc2c[nH]c3ncccc23)NC(=O)[C@@H](c2ccccc2)NC(=O)[C@H](C)N(C)C(=O)[C@H](C)NC(=O)[C@H](CCCCN)NC(=O)[C@H](C(C)(C)C)NC(=O)[C@H](Cc2ccc(O)cc2)NC1=O (relative stereo) [Compound R4153, ACE-NVA-CYS*-TYR-TBG-LYS-ALA-NMA-DPHG-7AW-TYR-MFF-SAR-CYS*-NH2] |
| 2070 | C=CC(=O)NCc1cn(C[C@H](NC(=O)[C@H](C)NC(=O)[C@@H](NC(=O)[C@H](Cc2ccc(O)cc2)NC(=O)[C@H](CO)NC(=O)[C@H](CCC)NC(C)=O)C(C)(C)C)C(=O)N(C)[C@@H](C)C(=O)NC(C(=O)N[C@@H](Cc2c[nH]c3ncccc23)C(=O)N[C@@H](Cc2ccc(O)cc2)C(=O)N(C)[C@@H](Cc2ccc(F)cc2)C(=O)N(C)CC(=O)N[C@@H](CO)C(N)=O)c2ccccc2)nn1 (stereo partly drawn) [Compound R4005, ACE-NVA-SER-TYR-TBG-ALA-DAPTZAC1-NMA-RPHG-7AW-TYR-MFF-SAR-SER-NH2] |
| 215 | C#CC[C@@H]1NC(=O)CN(C)C(=O)[C@H](Cc2ccc(F)cc2)N(C)C(=O)[C@H](Cc2ccc(O)cc2)NC(=O)[C@H](Cc2c[nH]c3ncccc23)NC(=O)[C@H](c2ccccc2)NC(=O)[C@H](C)N(C)C(=O)[C@H](Cc2c[nH]cn2)NC(=O)[C@H](CCCCN)NC(=O)[C@H](C(C)(C)C)NC(=O)[C@H](Cc2ccc(O)cc2)NC(=O)CCCCNC1=O [Compound R4128, APA*-TYR-TBG-LYS-HIS-NMA-PHG-7AW-TYR-MFF-SAR-PRG*] (cyclo([Ava]Y[Tle]KH[NMeA][Phg][Trp(7-aza)]Y[NMePhe(4-F)][Sar][Pra])) |
| 268 | C#CC[C@@H]1NC(=O)CN(C)C(=O)[C@H](Cc2ccc(F)cc2)N(C)C(=O)[C@H](Cc2ccc(O)cc2)NC(=O)[C@H](Cc2c[nH]c3ncccc23)NC(=O)[C@H](c2ccccc2)NC(=O)[C@H](C)N(C)C(=O)[C@H](Cc2c[nH]cn2)NC(=O)[C@H](CCCCN)NC(=O)[C@H](C(C)(C)C)NC(=O)[C@H](Cc2ccc(O)cc2)NC(=O)COCCOCCNC1=O [Compound R4130, PEG1*-TYR-TBG-LYS-HIS-NMA-PHG-7AW-TYR-MFF-SAR-PRG*] (cyclo([AEEA]Y[Tle]KH[NMeA][Phg][Trp(7-aza)]Y[NMePhe(4-F)][Sar][Pra])) |
| 411 | C#CC[C@@H]1NC(=O)CN(C)C(=O)[C@H](Cc2ccc(F)cc2)N(C)C(=O)[C@H](Cc2ccc(O)cc2)NC(=O)[C@H](Cc2c[nH]c3ncccc23)NC(=O)[C@H](c2ccccc2)NC(=O)[C@H](C)N(C)C(=O)[C@H](Cc2c[nH]cn2)NC(=O)[C@H](CCCCN)NC(=O)[C@H](C(C)(C)C)NC(=O)[C@H](Cc2ccc(O)cc2)NC(=O)CCCCCNC1=O [Compound R4137, AHX*-TYR-TBG-LYS-HIS-NMA-PHG-7AW-TYR-MFF-SAR-PRG*] (cyclo([Ahx]Y[Tle]KH[NMeA][Phg][Trp(7-aza)]Y[NMePhe(4-F)][Sar][Pra])) |
| 522 | C#CC[C@@H]1NC(=O)CN(C)C(=O)[C@H](Cc2ccc(F)cc2)N(C)C(=O)[C@H](Cc2ccc(O)cc2)NC(=O)[C@H](Cc2c[nH]c3ncccc23)NC(=O)[C@H](c2ccccc2)NC(=O)[C@H](C)N(C)C(=O)[C@H](Cc2c[nH]cn2)NC(=O)[C@H](CCCCN)NC(=O)[C@H](C(C)(C)C)NC(=O)[C@H](Cc2ccc(O)cc2)NC(=O)CCOCCNC1=O [Compound R4139, AEP*-TYR-TBG-LYS-HIS-NMA-PHG-7AW-TYR-MFF-SAR-PRG*] (cyclo([PEG1]Y[Tle]KH[NMeA][Phg][Trp(7-aza)]Y[NMePhe(4-F)][Sar][Pra])) |
| 7640 | ACE-NVA-CYS*-TYR-TBG-DMABZK2-HIS-NMA-PHG-7AW-TYR-MFF-SAR-CYS*-NH2 (Ac-[Nva]CY[Tle]K(4‑(dimethylamino)benzoyl‑d4)H[NMeA][Phg][Trp(7-aza)]Y[NMePhe(4-F)][Sar]C-NH2; linker 2-13 via m‑xylylene) [Compound R4150, cyclized by a m-xylylene thioether bridge] |
| 5190 | ACE-NVA-CYS*-TYR-TBG-LYS-HIS-NMA-PHG-7AW-TYR-MFF-SAR-CYS*-PEG4PA-ADTZPA-NH2 (Ac-[Nva]CY[Tle]KH[NMeA][Phg][Trp(7-aza)]Y[NMePhe(4-F)][Sar]C-{PEG4-ADTZPA-NH2}; linker 2-13 via m‑xylylene) [Compound R4147, cyclized by a m-xylylene thioether bridge] |
| 12200 | ACE-NVA-SER-TYR-TBG-ALA-DAPTZAC2-NMA-RPHG-7AW-TYR-MFF-SAR-SER-NH2 (Ac-[Nva]SY[Tle]A[DAPTZAC2][NMeA][ξPhg][Trp(7-aza)]Y[NMePhe(4-F)][Sar]S-NH2) [Compound R4151, linear] |
| 6000 | ACE-NVA-SER-TYR-TBG-ALA-DAPTZAC3-NMA-RPHG-7AW-TYR-MFF-SAR-SER-NH2 (Ac-[Nva]SY[Tle]A[DAPTZAC3][NMeA][ξPhg][Trp(7-aza)]Y[NMePhe(4-F)][Sar]S-NH2) [Compound R4148, linear] |
| 37400 | ALF-NVA-CYS*-TYR-NVA-PHG-MFF-THR-PRO-7AW-CYS*-7AW-GLU-GLU-NH2 ({Alexa Fluor 594}-[Nva]CY[Nva][Phg][NMePhe(4-F)]TP[Trp(7-aza)]C[Trp(7-aza)]EE-NH2; linker 2-10 via mXylylene) [Compound R4154, cyclized by a m-xylylene thioether bridge] |

system: human lung cancer cell line H358; test: Cell permeability by monitoring intracellular fluorescence; format: cell-based; conditions: H358 cells treated 3.5 hours, serum-free media; compared to negative control and scrambled R4007
Protocol: Cell permeability of R4007 (a TAMRA-labeled R4000 derivative) was determined in the human lung cancer cell line H358 (ATCC, Manassas, Va.). Cells were maintained in RPMI-1640 with 10% FBS at 37° C., 95% relative humidity, 5% CO2. For experiments, cells were seeded at 50,000 cells/well in growth media on 96-well glass bottom plates (Greiner, Monroe, N.C.) and incubated 24 hours prior to treatment. Media was removed from cells and replaced with indicated treatment solutions prepared in serum-free media (0.1% DMSO final). Cells were treated for 3.5 hours, then washed 3 times with PBS, fixed with 4% formaldehyde in PBS for 5 minutes at room temperature, and washed 3 times with PBS. Cell nuclei were stained with 1 μg/ml DAPI nuclear stain for 5 minutes at room temperature. Images were captured using a Zeiss Axio Observer inverted microscope with 63× oil objective with excitation 365 nm/emission 445 for DAPI and excitation 565 nm/emission 620 for TAMRA. TAMRA signal was much stronger in cells treated with R4007 as compared to negative control and cells treated with scrambled R4007.

| Molecule | intracellular TAMRA signal |
| --- | --- |
| CCC[C@H](NC(C)=O)C(=O)N[C@H]1CSCc2cccc(c2)CSC[C@@H](C(=O)N[C@@H](Cc2cn(CCCNC(=O)c3ccc(-c4c5ccc(=[N+](C)C)cc-5oc5cc(N(C)C)ccc45)c(C(=O)[O-])c3)nn2)C(N)=O)NC(=O)CN(C)C(=O)[C@H](Cc2ccc(F)cc2)N(C)C(=O)[C@H](Cc2ccc(O)cc2)NC(=O)[C@H](Cc2c[nH]c3ncccc23)NC(=O)[C@H](c2ccccc2)NC(=O)[C@H](C)N(C)C(=O)[C@H](Cc2cnc[nH]2)NC(=O)[C@H](CCCCN)NC(=O)[C@H](C(C)(C)C)NC(=O)[C@H](Cc2ccc(O)cc2)NC1=O [Compound R4007] | much stronger |
